The values below come from patent US8986738B2, “Inhalative and instillative use of semifluorinated alkanes as an active substance carrier in the intrapulmonary area” (NOVALIQ GmbH, priority 2008, dated 2015).

A short description of the data set: Intratracheal bolus instillation of alpha-tocopherol solution in F6H8. In kind it is in vivo. Conditions: pigs.

Text: In the clinical experiment on pigs some of that solution was intratracheally instilled bolus-wise.

Consider `Cc1c(C)c2c(c(C)c1O)CC[C@@](C)(CCC[C@H](C)CCC[C@H](C)CCCC(C)C)O2` [alpha-tocopherol], for which the “location of the drug after exhaling the SFA” value is “remained in the alveolar region” and the “transfer of the drug into the bloodstream” value is listed as “no transfer of the drug into the bloodstream was detected”.
